Measured values: paper PMC8019873, “Histone Deacetylase Inhibitory and Cytotoxic Activities of the Constituents from the Roots of Sophora Pachycarpa” (Iranian Journal of Pharmaceutical Research : IJPR, 2020)

Tests used:
HCT116 cells = experiment: AlamarBlue cytotoxic assay, HCT116; assay type: cell-based; conditions: HCT-116, human colon cancer HCT116 cells, 48 h, read-out: Cytotoxicity IC50 HCT116
Experimental: (§1) The cells were seeded in 96-well microplates (1 × 10^4 cells/100 µL in each well) and cultivated for 24 h before the addition of test compounds. Three wells for each concentration were seeded and triplicate plates were used. […] Then, the cells were incubated with the different concentrations of the test compounds, positive control and cell culture medium alone as a negative control for 48 h. After that, 10 μL of alamarBlue® reagent was added to the attached cells and incubated for another four hour. The absorbance was measured at 600 nm using an ELISA microplate reader (Epoch; Bio Tek, Winooski, VT, USA), and the percent viability of the cells was investigated relative to the negative control that was exposed to the culture medium without compounds of the plant. Then, IC50 values were calculated by nonlinear regression analysis using GraphPad Prism (Version 6.0) software.

A549 cells = experiment: AlamarBlue cytotoxic assay, A549; assay type: cell-based; conditions: Homo sapiens, lung A549 cells, 48 h, read-out: Cytotoxicity IC50 A549
Experimental: as §1

HDAC [1] = experiment: Whole-cell HDAC inhibition assay in HCT116 cells; assay type: cell-based, human; conditions: HCT116, 18 h, Boc-Lys(ε-Ac)-AMC substrate
Experimental: (§2) The cellular HDAC assay was based on an assay published by Marek et al. ([16]). HCT116 and HeLa human cancer cell lines were seeded in 96-well tissue culture microplates (1.5 × 10^4 cells/90 µL culture medium in each well). […] The test compounds were dissolved in dimethyl sulfoxide (the final amount of DMSO/well was maintained at 0.1% V/V) and their concentrations adjusted to 70, 40, 20, 5, 1 μM through dilution with the growth medium. The reaction was started by adding 10 µL of 3 mM Boc-Lys (ε-Ac)-AMC (Bachem, Switzerland) to each well at a final concentration of 0.3 mM. The cells were incubated with the Boc-Lys (ε-Ac)-AMC for 3 h under cell culture conditions. […] The final volume of the assay is 210 µL in all the wells. After that, the solution was transferred into a black 96-well microplate with flat clear bottom and fluorescence intensity was detected at an excitation of 360 nm and emission of 470 nm in a NOVO star microplate reader (BMGLabTech, Offenburg, Germany).

HeLa cells = experiment: AlamarBlue cytotoxic assay, HeLa; assay type: cell-based; conditions: human cervical HeLa cells, 48 h, read-out: Cytotoxicity IC50 HeLa
Experimental: as §1

A2780 cells = experiment: AlamarBlue cytotoxic assay, A2780; assay type: cell-based; conditions: Homo sapiens, ovarian cancer A2780 cells, 48 h, read-out: Cytotoxicity IC50 A2780
Experimental: as §1

[2] = system: A2780, A549, HeLa, and HCT116 human cancer cell lines; experiment: AlamarBlue cytotoxic assay, range over four cancer cell lines; assay type: cell-based; conditions: read-out: Cytotoxicity IC50 range against four cancer cell lines
Experimental: Compounds 1-5 were tested against HeLa, HCT116, A2780and A549 human cancer cell lines using a nonfluorescent substrate, AlamarBlue® (BioSource Invitrogen, Paisely, UK) and subjected to cell viability assay as described with some modification ([15]). The cell lines were cultured in RPMI-1640 medium (Cambrex Bioscience) supplemented with 10% fetal bovine serum (FBS), and 1% penicillin/streptomycin at 37 °C in an atmosphere of 95% […] and 5% CO2. The cells were seeded in 96-well microplates (1 × 10^4 cells/100 µL in each well) and cultivated for 24 h before the addition of test compounds. Three wells for each concentration were seeded and triplicate plates were used. The test compounds were dissolved in dimethyl sulfoxide (the final amount of DMSO per well was maintained at 0.1%V/V) and their concentrations adjusted to 100, 50, 25, 12.5, 6.25 μM through dilution with the growth medium. […] The absorbance was measured at 600 nm using an ELISA microplate reader (Epoch; Bio Tek, Winooski, VT, USA), and the percent viability of the cells was investigated relative to the negative control that was exposed to the culture medium without compounds of the plant. Then, IC50 values were calculated by nonlinear regression analysis using GraphPad Prism (Version 6.0) software.

pan-HDAC = experiment: Whole-cell pan-HDAC inhibition, range over HCT116 and HeLa cells; assay type: cell-based, human; conditions: read-out: pan-HDAC inhibitory activity IC50 range
Experimental: as §2

HDAC [3] = experiment: Whole-cell HDAC inhibition assay in HeLa cells; assay type: cell-based, human; conditions: 18 h, Boc-Lys(ε-Ac)-AMC substrate
Experimental: as §2

| Structure (SMILES) | IC50 (HDAC [1]) [µM] | IC50 (pan-HDAC) [µM] | IC50 (HDAC [3]) [µM] | IC50 (HCT116 cells) [µM] | IC50 (A549 cells) [µM] | IC50 (HeLa cells) [µM] | IC50 (A2780 cells) [µM] | IC50 [2] [µM] |
| --- | --- | --- | --- | --- | --- | --- | --- | --- |
| CC(C)=CCc1c2c(c(O)c3c1O[C@@H](c1ccc(O)cc1)[C@@H]3c1cc(O)cc(O)c1)C(=O)C[C@@H](c1ccc(O)cc1O)O2 [Compound 5, alopecurone P] | 22.2 | – | 24.9 | 48.4 | 54.9 | 52.6 | 69 | – |
| Oc1ccc(C2Oc3cc(O)cc(O)c3C2O)cc1 (centres unmarked) [Compound 3, 2-(4-hydroxyphenyl)-2,3-dihydrobenzo[b]furan-3,4,6-triol] | > 70 | – | > 70 | 54 | 76.5 | 69.4 | > 100 | – |
| COc1c(C2COc3cc(O)c(CC=C(C)C)c(O)c3C2=O)ccc(O)c1CC=C(C)C (centres unmarked) [Compound 1, isosophoranone] | 26.5 | – | 34.7 | 39.3 | 53.5 | 43.2 | 49.3 | – |

The next lines start with results.

| IC50 (HDAC [1]) [µM] | IC50 (pan-HDAC) [µM] | IC50 (HDAC [3]) [µM] | Structure (SMILES) | IC50 (HCT116 cells) [µM] | IC50 (A549 cells) [µM] | IC50 (HeLa cells) [µM] | IC50 (A2780 cells) [µM] | IC50 [2] [µM] |
| --- | --- | --- | --- | --- | --- | --- | --- | --- |
| 0.08 | 0.08 to 3.85 | 3.85 | C=C(C)C(CC=C(C)C)Cc1c2c(c(O)c3c1OC(c1ccc(O)cc1)C3c1cc(O)cc(O)c1)C(=O)CC(c1ccc(O)cc1O)O2 (centres unmarked) [Compound 4, alopecurone J] | 18 | 30.9 | 9.97 | 21.9 | 9.97 to 30.9 |
| > 70 | – | > 70 | C=C(C)[C@H](CC=C(C)C)Cc1c(O)cc(O)c2c1O[C@H](c1ccc(O)cc1O)CC2=O [Compound 2, sophoraflavanone G] | 54.4 | 72.5 | 44.2 | 65.5 | – |
